Results reported in patent US20240358693A1, “METHODS OF TREATING PAIN” (Aisa Pharma, Inc., priority 2023, published 2024).

Test system: participants with SSc-RP
Test: Scleroderma Health Assessment Questionnaire (SHAQ): disability indices and visual analog scales
Assay type: in vivo, human
Settings: minus = improvement, two weeks of treatment
Source text: The standard, validated, patient reported outcome measures tool for SSc patients, the Scleroderma Health Assessment Questionnaire (SHAQ), will be used to assess the participant qualify of life. Details are attached in the Appendix. The participant quality of life will be scored, and a disability index calculated for each questionnaire completed by the patient at Screening and each in-clinic visit. The absolute change in participant quality of life from baseline to the end of each dosing period will be calculated similar to frequency data as before.
The SHAQ includes a Raynaud's VAS, which will be reported at screening and each in-clinic visit. The absolute change in Raynaud-VAS, assessed by the participants response to the SHAQ question ‘In the past 7 days, how much have your Raynaud's interfered with your daily activities?’ at baseline and the end of each dosing period will be calculated similar to frequency data as before.
The SHAQ is used to calculate a Disability Index to assess the participant qualify of life. The eight categories assessed by the Disability Index are 1) dressing and grooming, 2) arising, 3) eating, 4) walking, 5) hygiene, 6) reach, 7) grip, and 8) common daily activities. For each of these categories, patients report the amount of difficulty they have in performing two or three specific activities.
There are four possible responses for the Disability Index questions: • Without any difficulty=0 • With some difficulty=1 • With much difficulty=2 • Unable to do=3. • The highest score reported by the patient for any component question of the eight categories determines the score for that category. • If a component question is left blank or the response is too ambiguous to assign a score, then the score for that category is determined by the remaining completed question(s). • If all component questions are blank or if more than one answer is given, then follow up with the respondent is required. • If the respondent's mark is between the response columns, then move it to the closest one. If it's directly between the two, move it to the higher one.
Each of the disability items on the SHAQ has a companion aids/devices variable that is used to record what type(s) of assistance, if any, the participant uses for his/her usual activities. These variables (see below) are coded as follows: • 0=No assistance is needed. • 1=A special device is used by the patient in his/her usual activities. • 2=The patient usually needs help from another person. • 3=The patient usually needs BOTH a special device AND help from another person.
The scoring variables and scoring rules permit the computation of two disability indices, the Standard Disability Index and the Alternative Disability Index.
This question results in a new set of category scores that are computed by adjusting the score for each category, if necessary, based on the patient's use of an aid or device or assistance for that category. If either devices and/or help from another person are checked for a category, the score is set to “2”, unless the score is already “3” (i.e., scores of “0” or “1” are increased to “2”). For example, if the highest score for the dressing category is “1”, and the patient says they use a device for dressing, the computed category score would be “2”. The sum of the computed categories scores is then calculated and divided by the number of categories answered. This gives a score in the 0 to 3 range.
The aid and device variables are not used to calculate the alternative disability index; it is calculated by adding the scores for each of the categories and dividing by the number of categories answered. This gives a score in the 0 to 3 range.
The standard, validated, patient reported outcome measures tool for SSc patients, the SHAQ, was collected at the time points specified in the study schedules (FIG. 2 and FIGS. 4A and 4B) to assess the participant's quality of life. The SHAQ included a Raynaud's VAS that will also be reported separately.

[1] = Cilnidipine 20 mg n = 3, with Tadalafil 5 mg n = 4

In the case of `COCCOC(=O)C1=C(C)NC(C)=C(C(=O)OC/C=C/c2ccccc2)C1c1cccc([N+](=O)[O-])c1` (centres unmarked) [Cilnidipine 20 mg], the “SHAQ Alternative Disability Index, mean % change” value [1] is reported as −42%, the “SHAQ Breathing Difficulty, mean % change” value [1] is reported as −73% and the “SHAQ Burden of Fingers Ulcers, mean % change” value [1] is reported as −17%. For the same molecule, the “SHAQ Overall Scleroderma, mean % change” value [1] was −63%, the “SHAQ Pain, mean % change” value [1] was −53% and the “SHAQ Raynaud’s Difficulty, mean % change” value [1] was −49%. For the same molecule, the “SHAQ Standard Disability Index, mean % change” value [1] was −50% and the “SHAQ Intestinal Difficulty, mean % change (pooled, n = 7)” value (pooled, n = 7) was −45% (pooled,.
